Test results reported in patent US11256170B2, “Compound, resist composition, and method for forming resist pattern using it” (Mitsubishi Gas Chemical Company, Inc., priority 2015, dated 2022).

Experiment: Safe solvent solubility test of compound
Format: physicochemical
Conditions: for Safe solvent CHN (solubility) / Safe solvent PGME (solubility) / Safe solvent PGMEA (solubility): 23° C., ultrasonic waves 30 minutes, visual; for solubility in safe solvents (in words): summary of Table 1
Experimental: The solubilities of the compound in CHN, PGME, and PGMEA were evaluated according to the following criteria utilizing the amount of dissolution in each solvent. The amount of dissolution was measured at 23° C. by precisely weighing the compound into a test tube, adding a subject solvent so as to attain a predetermined concentration, applying ultrasonic waves for 30 minutes in an ultrasonic cleaner, and visually observing the subsequent state of the fluid.
A: 5.0% by mass≤Amount of dissolution
B: 3.0% by mass≤Amount of dissolution<5.0% by mass
C: Amount of dissolution<3.0% by mass

Safe solvent CHN (solubility)	Safe solvent PGME (solubility)	Safe solvent PGMEA (solubility)	solubility in safe solvents (in words)	Compound
A (5.0% by mass≤Amount of dissolution)	A (5.0% by mass≤Amount of dissolution)	A (5.0% by mass≤Amount of dissolution)	good solubility	CC(C)(C)OC(=O)Oc1ccc2c3c(ccc2c1)Oc1ccc2cc(OC(=O)OC(C)(C)C)ccc2c1C3c1cccc(I)c1 [Compound A-1-BOC]
A (5.0% by mass≤Amount of dissolution)	A (5.0% by mass≤Amount of dissolution)	A (5.0% by mass≤Amount of dissolution)	good solubility	CC(C)(C)OC(=O)Oc1ccc2ccc3c(c2c1)C(c1cccc(I)c1)c1c(ccc2ccc(OC(=O)OC(C)(C)C)cc12)O3 [Compound B-1-BOC]
A (5.0% by mass≤Amount of dissolution)	A (5.0% by mass≤Amount of dissolution)	A (5.0% by mass≤Amount of dissolution)	good solubility	CC(C)(C)OC(=O)OCc1ccc2ccc3c(c2c1)C(c1cccc(I)c1)c1c(ccc2ccc(COC(=O)OC(C)(C)C)cc12)O3 [Compound B-1-MeBOC]

The next lines start with the molecule.

Compound	Safe solvent CHN (solubility)	Safe solvent PGME (solubility)	Safe solvent PGMEA (solubility)	solubility in safe solvents (in words)
CC(C)(C)OC(=O)COc1ccc2c3c(ccc2c1)Oc1ccc2cc(OCC(=O)OC(C)(C)C)ccc2c1C3c1cccc(I)c1 [Compound A-1-MeBOC]	A (5.0% by mass≤Amount of dissolution)	A (5.0% by mass≤Amount of dissolution)	A (5.0% by mass≤Amount of dissolution)	good solubility
COc1cc(C2c3c(ccc4cc(OC(=O)OC(C)(C)C)ccc34)Oc3ccc4cc(OC(=O)OC(C)(C)C)ccc4c32)cc(I)c1OC(=O)OC(C)(C)C [Compound A-3-BOC]	A (5.0% by mass≤Amount of dissolution)	A (5.0% by mass≤Amount of dissolution)	B (3.0% by mass≤Amount of dissolution<5.0% by mass)	good solubility
COc1cc(C2c3c(ccc4cc(OCC(=O)OC(C)(C)C)ccc34)Oc3ccc4cc(OCC(=O)OC(C)(C)C)ccc4c32)cc(I)c1OCC(=O)OC(C)(C)C [Compound A-3-MeBOC]	A (5.0% by mass≤Amount of dissolution)	A (5.0% by mass≤Amount of dissolution)	A (5.0% by mass≤Amount of dissolution)	good solubility
CC(C)(C)OC(=O)Oc1ccc2c3c(ccc2c1)Oc1ccc2cc(OC(=O)OC(C)(C)C)ccc2c1C3c1ccc(-c2ccccc2)cc1 [XBisN-1-BOC, reference compound]	A (5.0% by mass≤Amount of dissolution)	B (3.0% by mass≤Amount of dissolution<5.0% by mass)	A (5.0% by mass≤Amount of dissolution)	good solubility
